Values quoted from earlier work in publication PMC11457607 (Oncoimmunology, 2024).

Tests used:
[1] = clinical diagnostic dye, i.v.
[2] = system: SSTR2; conditions: cyclic peptide agonist; in words
[3] = system: SSTR5; conditions: cyclic peptide agonist; in words
[4] = system: NETs; conditions: local irradiation, clinical trials

O=C1OC2(c3ccc(O)cc3Oc3cc(O)ccc32)c2ccccc21 [fluorescein]
safety of intravenous injection [1]: without reported overt safety concerns

DOTA-Tyr[3]-octreotate [DOTA-TATE]
affinity to SSTR2 [2]: high affinity to SSTR2
affinity to SSTR5 [3]: binds with a high affinity to SSTR2 and SSTR5

[^177Lu]Lu-DOTA-TATE
slowing progression of NETs [4]: high specificity and efficacy in slowing the progression of NETs
